Experiment [1] addresses T1, CHO cells over-expressing the EP3 receptor (Homo sapiens, UniProt P43115).
T1 construct: expressed in transfected cells; host or cells: CHO cells
T1 sequence (P43115 1-390): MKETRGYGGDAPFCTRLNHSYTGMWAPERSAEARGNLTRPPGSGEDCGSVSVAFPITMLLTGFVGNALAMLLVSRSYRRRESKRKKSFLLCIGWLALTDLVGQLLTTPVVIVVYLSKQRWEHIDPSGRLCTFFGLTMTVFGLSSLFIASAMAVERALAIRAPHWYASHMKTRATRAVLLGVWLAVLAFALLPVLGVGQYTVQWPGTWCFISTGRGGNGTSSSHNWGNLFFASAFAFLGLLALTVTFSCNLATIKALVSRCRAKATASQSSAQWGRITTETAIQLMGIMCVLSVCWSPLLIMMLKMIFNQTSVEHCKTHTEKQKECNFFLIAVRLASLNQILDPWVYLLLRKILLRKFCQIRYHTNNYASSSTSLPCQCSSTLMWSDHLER
The experiment is described as follows: CHO cell cAMP assay; EP3 cAMP antagonist dose response (sulprostone reference), HTRF. It is filed as cell-based. The following applies: sulprostone 700 nM (EC80) and FSK 2 μM (EC70); read-out: CHO_cAMP IC50. An outline of the steps: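 EP3-overexpressing CHO cells pre-incubated with test compound, then stimulated 30 min at 37 °C with FSK (2 μM, EC70) plus sulprostone (700 nM, EC80); antagonism seen as restored cAMP. cAMP measured by HTRF 665/615 ratio, converted via on-plate standard curve. IC50 from Hill fit of 11-point dosing.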

The target of experiment [2] is T2, EP3 membrane (EP3 receptor) (Homo sapiens, UniProt P43115).
T2 construct: purchased Millipore HTS092M
T2 sequence (P43115 1-390): T1 sequence (P43115 1-390)
The experiment is described as follows: [3H]-PGE2 binding; EP3 competition binding (SPA). The gist of the method: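 SPA competition at room temperature, 2 h: EP3 membranes 2 μg/well, 2 nM [3H]-PGE2, 0.1% DMSO, in Tris/MgCl2/EDTA buffer pH 7.4. Compounds in 1:3 serial dilution; scintillation read; Ki by one-site nonlinear fit.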

SMILES strings stand for the structures. Read-outs that look alike come from different tables or passages of the source.

The IC50 is the midpoint of a concentration-inhibition curve. As a reminder, the Ki is a dissociation constant, usually derived from enzyme kinetics or from competition with a known ligand. For the compound `CN(C/C(F)=C1\COCc2cnn(Cc3ccc(Cl)cc3Cl)c21)C(=O)NS(=O)(=O)c1cc(Cl)c(Cl)s1` [Compound #74, (E)-4,5-dichloro-N-((2-(1-(2,4-dichlorobenzyl)-1,4-dihydropyrano[4,3-c]pyrazol-7(6H)-ylidene)-2-fluoroethyl)(methyl)carbamoyl)thiophene-2-sulfonamide], in experiment [1], the half-inhibitory concentration (IC50) amounted to 31 nM. This compound yielded a Ki in experiment [2] of 35 nM.

With `COc1ccc(Br)cc1S(=O)(=O)NC(=O)NC/C=C1\CCCc2cnn(Cc3ccc(Cl)cc3Cl)c21` [Compound #42, (E)-5-bromo-N-((2-(1-(2,4-dichlorobenzyl)-1,4,5,6-tetrahydro-7H-indazol-7-ylidene)ethyl)carbamoyl)-2-methoxybenzenesulfonamide], the IC50 in experiment [1] is 6 nM. The Ki in experiment [2] amounted to 3 nM.

For `O=C(NS(=O)(=O)c1ccc(Cl)cc1)OC/C=C1/c2c(cnn2Cc2ccc(Cl)cc2Cl)CCC1F` (stereo not shown) [Compound #50, (Z)-2-(1-(2,4-dichlorobenzyl)-6-fluoro-1,4,5,6-tetrahydro-7H-indazol-7-ylidene)ethyl ((4-chlorophenyl)sulfonyl)carbamate], the concentration for half-maximal inhibition (IC50) in experiment [1] worked out at 75 nM. In experiment [2], this compound gave a Ki of 29 nM.

As to `O=C(NC/C=C1\CCCc2cnn(Cc3ccc(Cl)cc3Cl)c21)NS(=O)(=O)c1cc(F)cc(F)c1` [Compound #9, (E)-N-((2-(1-(2,4-dichlorobenzyl)-1,4,5,6-tetrahydro-7H-indazol-7-ylidene)ethyl)carbamoyl)-3,5-difluorobenzenesulfonamide], in experiment [1], the IC50 was determined as 14 nM. For the same compound, the Ki in experiment [2] was 6 nM.

`O=C(C/C=C1\CCCc2cnn(Cc3ccc(Cl)cc3Cl)c21)NS(=O)(=O)c1cc2ccccc2s1` [Compound #25, (E)-N-(benzo[b]thiophen-2-ylsulfonyl)-3-(1-(2,4-dichlorobenzyl)-1,4,5,6-tetrahydro-7H-indazol-7-ylidene)propenamide]: the IC50 in experiment [1] stood at 251 nM. In experiment [2], this compound gave a Ki of 51 nM.

Take `CC(C)Cn1ncc2c1/C(=C/CNC(=O)NS(=O)(=O)c1ccc(Cl)cc1)CCC2` [Compound #80, (E)-4-chloro-N-((2-(1-isobutyl-1,4,5,6-tetrahydro-7H-indazol-7-ylidene)ethyl)carbamoyl)benzenesulfonamide]: the IC50 in experiment [1] amounted to 4400 nM. The compound further had a Ki in experiment [2] of 920 nM.

For `O=C(NC/C=C1\CCCc2cnn(C3CCN(c4ccccn4)CC3)c21)NS(=O)(=O)c1cc(Cl)c(Cl)s1` [Compound #140, (E)-4,5-dichloro-N-((2-(1-(1-(pyridin-2-yl)piperidin-4-yl)-1,4,5,6-tetrahydro-7H-indazol-7-ylidene)ethyl)carbamoyl)thiophene-2-sulfonamide], in experiment [1], the IC50 was 12 nM. This compound also had an inhibition constant (Ki) in experiment [2] of 8 nM.

On to `COc1ccc(-n2ncc3c2/C(=C/CNC(=O)NS(=O)(=O)c2ccc(Cl)cc2)CCC3)cn1` [Compound #105, (E)-4-chloro-N-((2-(1-(6-methoxypyridin-3-yl)-1,4,5,6-tetrahydro-7H-indazol-7-ylidene)ethyl)carbamoyl)benzenesulfonamide], for which, in experiment [1], the 50% inhibitory concentration (IC50) was 294 nM. Also, the Ki in experiment [2] was found to be 238 nM.

For the compound `O=C(C/C=C1\CCCc2cnn(Cc3ccc(Cl)cc3Cl)c21)NS(=O)(=O)c1cc(F)cc(F)c1` [Compound #19, (E)-3-(1-(2,4-dichlorobenzyl)-1,4,5,6-tetrahydro-7H-indazol-7-ylidene)-N-((3,5-difluorophenyl)sulfonyl)propenamide], the IC50 in experiment [1] was 83 nM. In experiment [2], this compound showed a Ki of 14 nM.

With `COc1ccc(S(=O)(=O)NC(=O)NC/C=C2\COCc3cnn(Cc4ccc(Cl)cc4Cl)c32)cn1` [Compound #67, (Z)—N-((2-(1-(2,4-dichlorobenzyl)-1,4-dihydropyrano[4,3-c]pyrazol-7(6H)-ylidene)ethyl)carbamoyl)-6-methoxypyridine-3-sulfonamide], the IC50 in experiment [1] came to 74 nM. In experiment [2], the Ki was 26 nM.

With `O=C(NC/C=C1\CCCc2cnn(-c3ccc4ccccc4c3)c21)NS(=O)(=O)c1cc(Cl)c(Cl)s1` [Compound #79, (E)-4,5-dichloro-N-((2-(1-(naphthalen-2-yl)-1,4,5,6-tetrahydro-7H-indazol-7-ylidene)ethyl)carbamoyl)thiophene-2-sulfonamide], in experiment [1], the IC50 worked out at 2 nM. Affinity in experiment [2] (unit nM) was put at a Ki of 0.4 nM.

For `O=C(NC/C(F)=C1/CCCCc2cnn(Cc3ccc(Cl)cc3Cl)c21)NS(=O)(=O)c1ccc(Cl)cc1` [Compound #102, (E)-4-chloro-N-((2-(1-(2,4-dichlorobenzyl)-4,5,6,7-tetrahydrocyclohepta[c]pyrazol-8(1H)-ylidene)-2-fluoroethyl)carbamoyl)benzenesulfonamide], the IC50 in experiment [1] was more than 20000 nM. The Ki in experiment [2] is more than 10000 nM.

As to `O=C(CC/C=C1\CCCc2cnn(Cc3ccc(Cl)cc3Cl)c21)NS(=O)(=O)c1ccc(Cl)cc1` [Compound #24, (E)-N-((4-chlorophenyl)sulfonyl)-4-(1-(2,4-dichlorobenzyl)-1,4,5,6-tetrahydro-7H-indazol-7-ylidene)butanamide], the concentration for half-maximal inhibition (IC50) in experiment [1] is 6 nM. In experiment [2], this compound gave a Ki of 3 nM.

On to `O=C(NC/C(F)=C1\CCCc2cnn(-c3ccc(C(F)(F)F)cc3)c21)NS(=O)(=O)c1ccc2c(c1)OCCO2` [Compound #116, (Z)—N-((2-fluoro-2-(1-(4-(trifluoromethyl)phenyl)-1,4,5,6-tetrahydro-7H-indazol-7-ylidene)ethyl)carbamoyl)-2,3-dihydrobenzo[b][1,4]dioxine-6-sulfonamide], for which, in experiment [1], the IC50 is more than 20000 nM. In experiment [2], this compound returned a Ki of 4100 nM.

As for `O=C(NC/C(F)=C1\CCCc2cnn(Cc3ccc(Cl)cc3Cl)c21)NS(=O)(=O)c1cc(Cl)c(Cl)s1` [Compound #40, (Z)-4,5-dichloro-N-((2-(1-(2,4-dichlorobenzyl)-1,4,5,6-tetrahydro-7H-indazol-7-ylidene)-2-fluoroethyl)carbamoyl)thiophene-2-sulfonamide], the IC50 in experiment [1] was found to be 1 nM. Further, the Ki in experiment [2] stood at 1 nM.

For `O=C(NC/C(F)=C1/CCCc2cnn(Cc3ccc(Cl)cc3Cl)c21)NS(=O)(=O)c1cc(Cl)c(Cl)s1` [Compound #45, (E)-4,5-dichloro-N-((2-(1-(2,4-dichlorobenzyl)-1,4,5,6-tetrahydro-7H-indazol-7-ylidene)-2-fluoroethyl)carbamoyl)thiophene-2-sulfonamide], the IC50 in experiment [1] came to 6700 nM. For the same compound, in experiment [2], the Ki turned out to be 1300 nM.

Take `O=C(NC/C=C1\CCCc2cnn(C3CCN(c4ccc(F)cc4)CC3)c21)NS(=O)(=O)c1cc(Cl)c(Cl)s1` [Compound #123, (E)-4,5-dichloro-N-((2-(1-(1-(4-fluorophenyl)piperidin-4-yl)-1,4,5,6-tetrahydro-7H-indazol-7-ylidene)ethyl)carbamoyl)thiophene-2-sulfonamide]: the IC50 in experiment [1] came to 6 nM. In experiment [2], this compound registered a Ki of 1 nM.

In the case of `O=C(NC/C=C1\CCCc2cnn(Cc3ccc(Cl)cc3Cl)c21)NS(=O)(=O)c1cc(Cl)c(Cl)s1` [Compound #7, (E)-4,5-dichloro-N-((2-(1-(2,4-dichlorobenzyl)-1,4,5,6-tetrahydro-7H-indazol-7-ylidene)ethyl)carbamoyl)thiophene-2-sulfonamide], the IC50 in experiment [1] came to 11 nM. Moreover, in experiment [2] (unit nM), the Ki was found to be 0.5 nM.

For the compound `O=C(NC/C=C1\COCc2cnn(Cc3ccc(Cl)cc3Cl)c21)NS(=O)(=O)c1cc(Cl)c(Cl)s1` [Compound #49, (Z)-4,5-dichloro-N-((2-(1-(2,4-dichlorobenzyl)-1,4-dihydropyrano[4,3-c]pyrazol-7(6H)-ylidene)ethyl)carbamoyl)thiophene-2-sulfonamide], the IC50 in experiment [1] is 1 nM. Also, the affinity in experiment [2] (unit nM) corresponds to a Ki of 0.4 nM.

With `CC(C)S(=O)(=O)NC(=O)C/C=C1\CCCc2cnn(Cc3ccc(Cl)cc3Cl)c21` [Compound #14, (E)-3-(1-(2,4-dichlorobenzyl)-1,4,5,6-tetrahydro-7H-indazol-7-ylidene)-N-(isopropylsulfonyl)propenamide], the IC50 in experiment [1] is 3700 nM. In addition, the Ki in experiment [2] was 2000 nM.

As for `COc1cccc(S(=O)(=O)NC(=O)NC/C=C2\COCc3cnn(Cc4ccc(Cl)cc4Cl)c32)c1` [Compound #63, (Z)—N-((2-(1-(2,4-dichlorobenzyl)-1,4-dihydropyrano[4,3-c]pyrazol-7(6H)-ylidene)ethyl)carbamoyl)-3-methoxybenzenesulfonamide], the concentration for half-maximal inhibition (IC50) in experiment [1] stood at 121 nM. Besides, the Ki in experiment [2] was 44 nM.

For the compound `O=C(NS(=O)(=O)c1ccc(Cl)cc1)OC/C(F)=C1/COCc2cnn(-c3cccc(C(F)(F)F)c3)c21` [compound 108], in experiment [1], the IC50 was more than 20000 nM. The Ki in experiment [2] is more than 10000 nM.

In the case of `O=C(NC/C=C1\CCCc2cnn(-c3cccc(Br)c3)c21)NS(=O)(=O)c1cc(Cl)c(Cl)s1` [Compound #77, (E)-N-((2-(1-(3-bromophenyl)-1,4,5,6-tetrahydro-7H-indazol-7-ylidene)ethyl)carbamoyl)-4,5-dichlorothiophene-2-sulfonamide], the IC50 in experiment [1] was determined as 258 nM. The compound also gave a Ki in experiment [2] of 12 nM.

Values taken from patent publication US20210253562A1, “ACYLSUFONAMIDE COMPOUNDS USEFUL AS EP3 RECEPTOR ANTAGONISTS” (Janssen Pharmaceutica NV, priority 2018, published 2021).
